Laboratory results taken from US20240207292A1, “BORONIC ACID COMPOUNDS, COMPOSITIONS AND METHODS” (Trustees of Tufts College, priority 2021, published 2024).

What was measured:
[1] = lyophilized powder reconstituted before administration; cited from earlier work
[2] = Stability of bortezomib with excipients in water, propyleneglycol (PG) or butylene glycol (BG) at 1 mg/mL, 50° C.; format: physicochemical; details: in the absence of N-Acetyl-L-methionine
Procedure: In Examples 1-3 below, Tables 1, 2 and 3 summarize the effectiveness of sulfur compounds in stabilizing bortezomib such as against oxidation and decomposition reactions. For each of the following Examples 1-3, the following procedures were used: Samples preparation: 100 mg of the API (active pharmaceutical ingredient) was suspended into 100 mL of water or other ratioed solvents, mixed well by using a vortex mixer and sonicator (with gentle warm if necessary) to make a 1 mg/mL of solution A. 10 mg of each excipient was weighed into avial, and 1 mL of solution A was added, mixed well to give the test solution B (10:1 of excipient/API). Took 100 μL of solution B and diluted into 1 mL with solution A to give the test solution C (1:1 of excipient/API). Took 100 μL of solution C and diluted into 1 mL with solution A to give the test solution D (0.1:1 of excipient/API). For solid powderform of Bortezomib with the excipients, method in US 2005/0282742 A1 was adopted. […]
Aqueous formulations of bortezomib together with a number of sulfur-containing compounds in varying weight ratios were evaluated for stability over time based on purity of Bortezomib in water, propyleneglycol (PG) or butylene glycol (BG) at 1 mg/mL, 50° C.

## CC(C)C[C@H](NC(=O)[C@H](Cc1ccccc1)NC(=O)c1cnccn1)B(O)O [Bortezomib, reference compound]
[1]
  time the reconstituted solution is sufficiently stable: up to 8 hours
[2]
  decomposition of bortezomib: 67%
